{"source": "BindingDB's records for doi:10.1021/jm020562o", "about": "(University of Vermont, 2003)", "test": "Binding affinity was determined against Opioid receptor delta 1 from guinea pig brain membranes", "data": [{"smiles": "COCC[C@H]1CC2CN3CCc4c([nH]c5ccccc45)[C@](C(=O)OC)(C2)C13", "note": "[18-methoxycoronaridine]", "values": [{"measurement": "Ki", "result": 3.5, "unit": "µM"}]}]}
